Assay results reported in patent publication US12194042B2, “Uses” (INTRA-CELLULAR THERAPIES, INC., priority 2018, dated 2025).
Entries after “also recorded” stand apart in the source; their conditions may differ.

Key:
Type in all cases: in vivo, human
[1] = system: patients with mild to moderate Parkinson's Disease (PD); test: CISI-PD (Clinical Impression of Severity Index for PD) in the Phase 1/2 study; settings: versus placebo; FIG. 4
Experimental: (§1) A Phase 1/2 randomized, double-blind, placebo-controlled, multiple rising dose clinical study was carried out to evaluate Compound 1 (below) in patients with mild to moderate Parkinson's Disease (PD).
(§2) 40 patients with idiopathic PD are recruited for the study. Patients with mild to moderate PD (Hoehn and Yahr staging score of 1-3 assessed in the “On” state) maintained on stable PD therapy are randomly assigned to placebo or 5 cohorts of Compound 1 at 1 mg, 3 mg, 10 mg, 30 mg, and 90 mg administered orally once daily for 7 days. All patients participating in the study are maintained on their stable PD therapy (e.g., dopamine replacement therapies), some of which are taking more than one category of PD therapy. Of the 40 patients, there are 28 receiving carbidopa/L-dopa, 14 receiving a dopamine agonist, 5 receiving amantadine, and 3 receiving MAO inhibitors.

[2] = system: patients with mild to moderate Parkinson's Disease (PD); test: Hauser Patient Motor Diary in the Phase 1/2 study; settings: rated by subjects, oral once daily for 7 days
Experimental: as §1, §2
(§3) The efficacy of Compound 1 in improving motor and non-motor symptoms of PD is measured using multiple scales, providing input from both subjects and site raters. Motor performance was improved and motor complications were reduced in the “On” state by Compound 1 relative to placebo treatment as assessed by the Movement Disorder Society Unified Parkinson's Disease Rating Scale (MDS-UPDRS) (FIG. 1). […] (FIGS. 3-4).

[3] = system: patients with mild to moderate Parkinson's Disease (PD); test: Phase 1/2 randomized, double-blind, placebo-controlled, multiple rising dose clinical study: safety and tolerability
Experimental: as §1
(§4) The study is designed to evaluate the safety and tolerability of Compound 1 in patients who are maintained on stable PD therapy. Another objective is to evaluate the pharmacokinetic profile of Compound 1 and explore its potential utility to control motor fluctuations and to evaluate treatment of non-motor symptoms (e.g., daytime sleepiness, dysautonomia) associated with PD. Biomarkers of disease progression (i.e., inflammation) are assessed.
as §2

[4] = Pharmacokinetic profile in the Phase 1/2 study
Experimental: as §4, §2
Plasma steady state is achieved in the first 48 hours and supports once-a-day dosing for future efficacy trials.

[5] = system: patients with mild to moderate Parkinson's Disease (PD); test: Unified Dyskinesia Rating Scale (UDysRS) in the Phase 1/2 study; settings: FIG. 2
Experimental: as §1, §2, §3

[6] = system: patients with mild to moderate Parkinson's Disease (PD); test: Unified Parkinson's Disease Rating Scale (MDS-UPDRS) in the Phase 1/2 study
Experimental: as §1, §2, §3

[7] = "On" state, relative to placebo, FIG. 1

In the case of `CN1C(=O)c2c(nn(Cc3ccc(-c4cccc(F)n4)cc3)c2Nc2ccccc2)N2C1=N[C@@H]1CCC[C@@H]12` [Compound 1, (6aR,9aS)-5,6a,7,8,9,9a-hexahydro-5-methyl-3-(phenylamino)-2-((4-(6-fluoropyridin-2-yl)phenyl)methyl)-cyclopent[4,5]imidazo[1,2-a]pyrazolo[4,3-e]pyrimidin-4(2H)-one], the “CISI-PD Motor Complications Score” value [1] is reported as “reductions; also recorded: decreased”, the “total On time (Hauser Patient Motor Diary)” value [2] is reported as “increased” and the “"On" time without dyskinesias (Hauser Patient Motor Diary)” value ([2]; versus placebo) is reported as “increases on-time without causing dyskinesia; also recorded: increased”. The serious adverse events ([3]; 1 mg to 90 mg orally once daily for 7 days) was “No serious adverse events”, the “induction or worsening of motor complications” value ([3]; PD patients receiving concomitant dopamine replacement therapies) was “did not induce or worsen motor complications” and the “effects on vital signs, cardiovascular or laboratory parameters” value ([3]; compared to placebo) was “no clinically significant effects”. For the same compound, the tolerability ([3]; once-daily oral for 7 days, doses from 1 mg to 90 mg) was “generally well tolerated”, the safety profile ([3]; once-daily oral for 7 days, no titration, 1 mg to 90 mg) was “favorable safety profile” and the “side effects of dopamine replacement therapies” value ([3]; patients on dopamine replacement therapies) was “reduces the side effects”. The “time to plasma steady state” value ([4]; once daily oral dosing) was no more than 48 h, the “pharmacokinetics (dose linearity)” value ([4]; parent drug and metabolites, across 1 mg to 90 mg) was “linear pharmacokinetics” and the “dyskinesia symptoms / motor complications measured by UDysRS” value ([5]; oral once daily for 7 days) was “reductions; also recorded: reduces dyskinesia symptoms”. For the same compound, the “Objective UDysRS Total Score” value ([5]; subjects with dyskinesia at baseline, after treatment) was “Improves”, the “UPDRS scores at end of study (EOS)” value ([6]; 30 days after cessation of treatment, FIG. 1) was “Scores increase” and the “motor complications (MDS-UPDRS)” value [6, 7] was “reduced”. The “motor performance (MDS-UPDRS)” value [6, 7] was “improved”, the UPDRS scores ([6]; by day 7 of treatment, PD patients on stable PD therapy, FIG. 1) was “decrease scores” and the “MDS-UPDRS total scale scores” value ([6]; oral once daily for 7 days) was “reduces scores”. The “motor symptoms (UPDRS Part III; clinician ratings of the motor manifestations of PD)” value ([6]; oral once daily for 7 days, on stable PD therapy) was “reductions; also recorded: reduces scores” and the “motor complications including dyskinesias (UPDRS Part IV subscale)” value ([6]; oral once daily for 7 days, Part IV data not shown) was “reductions; also recorded: reduces scores”.
